The source of these data is publication PMC10436260, “Thiazolide Prodrug Esters and Derived Peptides: Synthesis and Activity” (ACS Bio & Med Chem Au, 2023).

Data set [1] relates to influenza A virus (IAV) strain A/PuertoRico/8/1934(H1N1) (PR8). The data set can be described thus: microbe, parasite or virus in culture. The format is cell-based.
The conditions of data set [2]: rat, in vivo, po; cited from earlier work.
Data set [3] is classed as physicochemical. The note with it: for stability of solutions: pH 5. From the text:
We studied the aqueous stability further by NMR, Figures 1 and 2. […] In the case of valacyclovir, which we originally used as a model for 5a and 6, it was known that some hydrolysis occurred in vivo.[17] Clearly, at the 18 day time point [Figure 2g], the rearrangement and hydrolysis products accounted for ∼50% of the total analyte. In Figure 3, the aryl region is integrated and compared with the spectra of 5a, 3, and 8 (see below).
Figure 2 Time-course ^1H NMR spectra of the aromatic region of 5a in d6-DMSO + 10%D2O. Evolution with time over an 18 day period at 298–313 K. The sample was held in an isothermal bath at a specified temperature between measurements. Spectra were recorded at the temperature stated in each case. (a) t = zero, 298 K; (b) t = 1 week, 308 K; (c) t = 8 days, 308 K; (d) t = 9 days, 308 K; (e) t = 11 days, 313 K; (f) t = 14 days, 313 K; (g) t = 18 days, 313 K.
Figure 3 Assignment and integration of the final time-point spectrum.

Data set [4] is described as follows: physchem. The note with it: pH 7.4.
Data set [5] in a line: physchem. Format: physicochemical. From the text: Table 1 Summarized DMPK and Antiviral Data for Thiazolides and Derived Peptides | column: log P
A short description of data set [6]: in vitro. The format is in vitro ADME. The note with it: human, microsomes. The source says:
Table 1 Summarized DMPK and Antiviral Data for Thiazolides and Derived Peptides | column: clearance HLM μL/min/mg

Data set [7] can be described thus: clearance in rat hepatocytes (RH). The format is in vitro ADME. From the text: Table 1 Summarized DMPK and Antiviral Data for Thiazolides and Derived Peptides | column: clearance RH μL/min/10^6 cells
The nature of data set [8]: cell viability by MTT assay in mock-infected cells. The format is cell-based, canine. The following applies: dog; mock-infected MDCK cells, MTT, 24 h; read-out: CC50 (50% cytotoxic concentration). The method, then: (§1) Madin–Darby canine kidney (MDCK) cells (American Type Culture Collection, ATCC) were grown at 37 °C in a 5% CO2 atmosphere in an RPMI-1640 medium (LONZA-CAMBREX, Basel, Switzerland), supplemented with 10% fetal calf serum (FCS), 2 mM glutamine, and antibiotics. Tizoxanide (Romark Laboratories, L.C.) and derived peptides, dissolved in a dimethyl sulfoxide (DMSO) stock solution, were diluted in culture medium, added to infected cells after a one-hour virus adsorption period, and maintained in the medium for the duration of the experiment.
(§2) Cell viability was determined by the 3-(4,5-dimethylthiazol-2-yl)-2,5-diphenyltetrazolium bromide (MTT) to MTT formazan conversion assay (Sigma-Aldrich), as described.[28],[29] The 50% cytotoxic dose (CC50) was calculated using Prism 5.0 software (Graph-Pad Software Inc.).[28]
(§3) Confluent cell monolayers were mock-infected or infected with PR8 virus for 1 h at 37 °C at a multiplicity of infection (MOI) of 5 HAU (hemagglutinating units)/10^5 cells, as described.[30],[31] After the adsorption period, the viral inoculum was removed and cells were treated with different concentrations (0.1, 1, 5, 10, and 50 μg/mL) of each compound or vehicle and maintained at 37 °C in an RPMI-1640 medium containing 2% FCS for 24 h; in parallel, cell viability was determined in mock-infected cells by the MTT assay, as described above. Virus yield was determined 24 h post infection (p.i.) by HA titration, as described.[31] Compounds’ IC50 (50% inhibitory concentration) and IC90 (90% inhibitory concentration) were calculated using Prism 5.0 software.

Data set [9] relates to Madin–Darby canine kidney (MDCK) cells. Kind of data set: cell viability by MTT assay in mock-infected cells. The format is cell-based. The following applies: antiviral assay conditions, MDCK cells. The method, then:
as §1, §2, §3
In general terms: Tetrazolium assays rely on reduction of a dye to a coloured formazan, in cell work by metabolically active cells.

[10] abbreviates: CC50 (MDCK) / IC50 (influenza A).
[11] abbreviates: Influenza A virus, MDCK, 24 h; read-out: IC50 (50% inhibitory concentration).
[12] abbreviates: Influenza A virus, MDCK, 24 h; read-out: IC90 (90% inhibitory concentration).

Each structure is given as a SMILES string. Converted amounts (≈) assume the structure as drawn. “Also recorded” adds a separate entry of the source. Where two headings read alike, the source gives them in different places.

As for `CC(C)(C)[C@H](N)C(=O)Oc1ccccc1C(=O)Nc1ncc([N+](=O)[O-])s1` [5a], the “antiviral activity in words” value in data set [1] (influenza A virus assay) is on record as “activity is equivalent to 3”. The absolute bioavailability in [2] was 20–25%. In addition, the stability on storage result in [3] was “stable for months”. Besides, the “rearrangement and hydrolysis products as share of total analyte / loss of 5a” value in data set [3] (d6-DMSO + 10% D2O, 298–313 K, 18 day time point, 1H NMR integration) is on record as roughly 50%.
On to `CC(C)(C)[C@H](N)C(=O)Oc1ccccc1C(=O)Nc1ncc([N+](=O)[O-])s1.Cc1ccc(S(=O)(=O)O)cc1` [5b, (S)-3,3-Dimethyl-1-(2-((5-nitrothiazol-2-yl)carbamoyl)phenoxy)-1-oxobutan-2-aminium 4-methylbenzenesulfonate], for which, in [3], the stability of solutions entry is recorded as “unstable”.
The same measure, in the same setting: the entry for `CC(C)(C)[C@H](N)C(=O)Oc1ccccc1C(=O)Nc1ncc([N+](=O)[O-])s1.CS(=O)(=O)O` [5c, (S)-3,3-Dimethyl-1-(2-((5-nitrothiazol-2-yl)carbamoyl)phenoxy)-1-oxobutan-2-aminium Methanesulfonate] is “unstable”.
Take `O=C(Nc1ncc([N+](=O)[O-])s1)c1ccccc1O` [compound 3, Tizoxanide, reference compound]: in [4], the solubility (usually the dissolved amount per volume that the medium holds) worked out at 33 µM (≈ 8.75 µg/mL). The “SI, selectivity index, CC50/IC50” value in data set [1] (setting [10]) was greater than 82. In addition, the IC50 in data set [1] (setting [11]) was 2.3 µM. The IC90 in data set [1] (setting [12]) amounted to 26.4 µM. Besides, the logP (in general, a log measure of how a compound divides between an organic and an aqueous phase) in data set [5] stood at 1.8. In addition, the microsomal CLint – broadly, a measure of how fast metabolising enzymes remove a compound, apart from limits set by blood flow – in data set [6] is 50.2 µL/min/mg. The intrinsic clearance (hepatocyte CLint) (usually the capacity of the preparation to metabolise the compound, expressed as a volume cleared per time) in data set [7] was 244 µL/min/1e6 cells. For the same compound, the CC50 at 24 h in data set [8] was greater than 189 µM.
Compound `O=C(Nc1ncc(Cl)s1)c1ccccc1O` [compound 4, reference compound] showed a solubility in [4] of 48 µM (≈ 12.2 µg/mL). Further, in data set [1], the “SI, selectivity index, CC50/IC50” value was greater than 50. The IC50 in data set [1] (Influenza A virus, MDCK, 24 h, read-out: IC50 (50% inhibitory concentration)) was determined as 3.9 µM. For the same compound, the IC90 in data set [1] (Influenza A virus, MDCK, 24 h, read-out: IC90 (90% inhibitory concentration)) was 19.6 µM. In data set [5], this compound came in with a logP of 2.9. Also, the microsomal CLint in data set [6] amounted to 37.5 µL/min/mg. For the same compound, the hepatocyte CLint in [7] was greater than 300 µL/min/1e6 cells. The CC50 at 24 h in [8] was greater than 196 µM.
Turning to `CC(C)(C)[C@H](N)C(=O)Oc1ccccc1C(=O)Nc1ncc(Cl)s1` [compound 6], the absolute bioavailability in [2] was 20–25%. Moreover, the stability on storage result in data set [3] is on record as “stable for months”.
Compound `CC(C)(C)[C@H](NC(=O)c1ccccc1O)C(=O)Nc1ncc([N+](=O)[O-])s1` [compound 8, (S)-N-(3,3-Dimethyl-1-((5-nitrothiazol-2-yl)amino)-1-oxobutan-2-yl)-2-hydroxybenzamide] returned a solubility in data set [4] of 18 µM (≈ 6.81 µg/mL). The “SI, selectivity index, CC50/IC50” value in data set [1] (setting [10]) was greater than 83. For the same compound, the IC50 in [1] (setting [11]) was 1.6 µM. In data set [1] (setting [12]), the IC90 was 79 µM. In addition, the “antiviral activity in words” value in data set [1] (influenza A virus assay) is reported as “retains good activity”. The compound also returned a logP in data set [5] of 3.3. The microsomal CLint in [6] was 36.5 µL/min/mg. In addition, the hepatocyte CLint in data set [7] amounted to 31.5 µL/min/1e6 cells. In [8], the CC50 at 24 h is greater than 132 µM.
In turn, `CC(C)(C)[C@H](NC(=O)c1ccccc1O)C(=O)Nc1ncc(Cl)s1` [compound 20, (S)-N-(3,3-Dimethyl-1-((5-chlorothiazol-2-yl)amino)-1-oxobutan-2-yl)-2-hydroxybenzamide] gave a solubility in data set [4] of 388 µM (≈ 143 µg/mL). For the same compound, the IC50 in [1] (setting [11]) was greater than 40.8 µM. In addition, in [1] (setting [12]), the IC90 was greater than 40.8 µM. Further, the “antiviral activity in words” value in data set [1] (influenza A virus assay) is “essentially inactive; also recorded: virtually inactive”. Further, the logP in data set [5] is greater than 3.5. In data set [6], this compound gave a microsomal CLint of 42.4 µL/min/mg. Moreover, in data set [7], the hepatocyte CLint was found to be 75.4 µL/min/1e6 cells. Moreover, the “toxicity under the assay conditions in words” value in [9] was “appeared toxic”. Besides, the CC50 at 24 h in data set [8] is 40.8 µM.
`CC(C)[C@H](NC(=O)c1ccccc1O)C(=O)Nc1ncc([N+](=O)[O-])s1` [compound 21, (S)-2-Hydroxy-N-(3-methyl-1-((5-nitrothiazol-2-yl)amino)-1-oxobutan-2-yl)benzamide] yielded a solubility in [4] greater than 1000 µM. Besides, the “SI, selectivity index, CC50/IC50” value in data set [1] (setting [10]) is reported as greater than 10. For the same compound, the IC50 in data set [1] (setting [11]) is 13.7 µM. Also, the IC90 in [1] (setting [12]) is greater than 137 µM. Further, in data set [1] (influenza A virus assay), the “antiviral activity in words” value is given as “considerably less active”. This compound came in with a logP in [5] of 2.9. For the same compound, the microsomal CLint in data set [6] was 55.9 µL/min/mg. In addition, the hepatocyte CLint in data set [7] was 67.7 µL/min/1e6 cells. For the same compound, the CC50 at 24 h in data set [8] was greater than 137 µM.
As to `CC(C)[C@H](NC(=O)c1ccccc1O)C(=O)Nc1ncc(Cl)s1` [compound 22, (S)-2-Hydroxy-N-(3-methyl-1-((5-chlorothiazol-2-yl)amino)-1-oxobutan-2-yl)benzamide], in data set [4], the solubility was determined as 82 µM (≈ 29 µg/mL). Also, the IC50 in data set [1] (setting [11]) was greater than 42.4 µM. For the same compound, in data set [1] (setting [12]), the IC90 was greater than 42.4 µM. The “antiviral activity in words” value in data set [1] (influenza A virus assay) was “essentially inactive; also recorded: virtually inactive”. The microsomal CLint in data set [6] came to 42.7 µL/min/mg. Also, the hepatocyte CLint in data set [7] is 234 µL/min/1e6 cells. For the same compound, the “toxicity under the assay conditions in words” value in data set [9] is “appeared toxic”. The CC50 at 24 h in data set [8] was 42.4 µM.
